# Source: ChEMBL document CHEMBL1129998, “Pharmacological options in the treatment of benign prostatic hyperplasia” (J Med Chem, 1997)
# Tests used:
# [1] = Inhibitory concentration on human 5-alpha reductase isozyme
# [2] = biological target: T1, Steroid 5-alpha-reductase (Rattus norvegicus, UniProt P24008+P31214); assay: Inhibition of rat 5-alpha reductase isozyme.; format: protein assay
# T1 sequence (P24008 whole entry): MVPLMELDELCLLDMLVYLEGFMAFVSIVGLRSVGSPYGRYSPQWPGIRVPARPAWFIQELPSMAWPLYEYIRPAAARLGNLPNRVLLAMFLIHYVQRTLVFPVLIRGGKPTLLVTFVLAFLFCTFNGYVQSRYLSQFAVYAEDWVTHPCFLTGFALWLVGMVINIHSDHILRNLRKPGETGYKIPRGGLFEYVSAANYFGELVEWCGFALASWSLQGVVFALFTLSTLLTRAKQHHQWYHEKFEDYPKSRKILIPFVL
# T1 sequence (P31214 whole entry): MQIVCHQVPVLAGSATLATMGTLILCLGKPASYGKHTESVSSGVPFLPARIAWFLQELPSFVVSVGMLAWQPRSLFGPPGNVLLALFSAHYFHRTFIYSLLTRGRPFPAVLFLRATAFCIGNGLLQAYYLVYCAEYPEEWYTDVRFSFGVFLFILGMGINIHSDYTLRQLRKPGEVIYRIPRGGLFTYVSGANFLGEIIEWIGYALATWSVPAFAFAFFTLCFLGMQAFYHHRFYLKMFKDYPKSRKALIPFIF
# [3] = biological target: T1, Steroid 5-alpha-reductase; assay: Apparent binding affinity on rat 5-alpha reductase isozyme; format: protein assay
# [4] = Apparent binding affinity on human 5-alpha reductase isozyme
# [5] = test system: Canis familiaris; assay: 50% reduction in agonist induced pressor response in anesthetized dog; format: functional; conditions: Canis lupus familiaris; read-out: ID50 (the source's name)
# [6] = biological target: T2, Alpha-1A adrenergic receptor (Homo sapiens, UniProt P35348); assay: Binding affinity was tested on human Alpha-1A adrenergic receptor
# T2 sequence (P35348 whole entry): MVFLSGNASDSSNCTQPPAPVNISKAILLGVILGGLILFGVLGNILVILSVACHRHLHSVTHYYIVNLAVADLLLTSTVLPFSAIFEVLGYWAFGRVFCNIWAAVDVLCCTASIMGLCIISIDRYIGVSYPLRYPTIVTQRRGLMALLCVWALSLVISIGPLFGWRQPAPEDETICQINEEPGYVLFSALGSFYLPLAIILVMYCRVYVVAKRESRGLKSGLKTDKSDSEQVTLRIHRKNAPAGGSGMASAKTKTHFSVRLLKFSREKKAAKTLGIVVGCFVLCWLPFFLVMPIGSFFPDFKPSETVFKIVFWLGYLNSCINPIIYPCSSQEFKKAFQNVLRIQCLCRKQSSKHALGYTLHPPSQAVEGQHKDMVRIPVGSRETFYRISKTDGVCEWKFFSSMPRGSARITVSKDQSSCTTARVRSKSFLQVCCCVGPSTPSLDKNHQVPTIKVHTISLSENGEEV
# [7] = biological target: T3, Alpha-1D adrenergic receptor (Homo sapiens, UniProt P25100); assay: Binding affinity was tested on human Alpha-1D adrenergic receptor
# T3 sequence (P25100 whole entry): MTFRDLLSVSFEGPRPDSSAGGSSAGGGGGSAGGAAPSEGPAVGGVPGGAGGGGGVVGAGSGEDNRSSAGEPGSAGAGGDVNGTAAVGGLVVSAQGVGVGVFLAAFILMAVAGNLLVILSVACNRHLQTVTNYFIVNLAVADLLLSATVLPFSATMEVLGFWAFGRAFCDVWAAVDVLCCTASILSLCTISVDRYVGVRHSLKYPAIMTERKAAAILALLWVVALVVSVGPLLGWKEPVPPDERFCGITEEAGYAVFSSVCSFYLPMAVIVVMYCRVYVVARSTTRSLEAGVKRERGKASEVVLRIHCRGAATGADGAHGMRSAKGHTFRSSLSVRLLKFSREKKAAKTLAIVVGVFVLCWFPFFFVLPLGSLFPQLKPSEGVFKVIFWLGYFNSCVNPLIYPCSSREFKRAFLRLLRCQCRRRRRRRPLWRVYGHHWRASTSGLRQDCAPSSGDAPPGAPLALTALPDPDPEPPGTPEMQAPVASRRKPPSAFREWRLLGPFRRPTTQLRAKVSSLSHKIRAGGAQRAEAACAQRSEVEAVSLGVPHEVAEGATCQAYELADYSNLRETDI
# [8] = biological target: T4, Adrenergic receptor alpha-1 (Homo sapiens, UniProt P35348+P25100+P35368); assay: pA2 for Alpha-1 adrenergic receptor from human prostate.; format: tissue-based, Prostate gland
# T4 sequence (P35348 whole entry): T2 sequence (P35348 whole entry)
# T4 sequence (P25100 whole entry): T3 sequence (P25100 whole entry)
# T4 sequence (P35368 whole entry): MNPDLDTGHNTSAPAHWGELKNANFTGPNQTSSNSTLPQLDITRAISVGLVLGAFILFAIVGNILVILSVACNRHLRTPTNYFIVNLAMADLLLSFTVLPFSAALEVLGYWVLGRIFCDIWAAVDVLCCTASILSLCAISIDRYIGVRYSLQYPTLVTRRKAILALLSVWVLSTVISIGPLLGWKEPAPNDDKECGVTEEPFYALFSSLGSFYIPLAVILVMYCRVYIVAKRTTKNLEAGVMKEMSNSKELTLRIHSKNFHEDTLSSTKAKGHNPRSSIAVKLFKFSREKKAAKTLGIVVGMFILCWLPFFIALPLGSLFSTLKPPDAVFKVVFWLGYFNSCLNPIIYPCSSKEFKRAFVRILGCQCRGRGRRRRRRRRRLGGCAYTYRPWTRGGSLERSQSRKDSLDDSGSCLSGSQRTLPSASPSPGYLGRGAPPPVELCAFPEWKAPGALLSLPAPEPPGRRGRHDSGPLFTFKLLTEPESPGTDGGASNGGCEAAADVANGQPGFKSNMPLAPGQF
# [9] = Ratio of intraurethral pressure to that of pressor response in dog.; format: functional
# [10] = biological target: T5, Alpha-1B adrenergic receptor (Homo sapiens, UniProt P35368); assay: Binding affinity was tested on human Alpha-1B adrenergic receptor
# T5 sequence (P35368 whole entry): T4 sequence (P35368 whole entry)
# [11] = test system: Canis familiaris; assay: 50% reduction in intraurethral pressure (IUP) in response to hypogastric nerve stimulation or agonist (phenylephrine or norepinephrine) administration in anesthetized dog; format: functional; conditions: Canis lupus familiaris; read-out: ID50 (the source's name)
# [12] = Dose (iv) for 20% reduction of mean blood pressure in rat (ID20) with the dose for 50% inhibition of norepinephrine-mediated contraction of proximal urethra (ID50) in cat; format: functional
# [13] = biological target: T6, 3-oxo-5-alpha-steroid 4-dehydrogenase 2 (Homo sapiens, UniProt P31213); assay: Inhibitory concentration on human prostatic 5-alpha reductase 2 isozyme
# T6 sequence (P31213 whole entry): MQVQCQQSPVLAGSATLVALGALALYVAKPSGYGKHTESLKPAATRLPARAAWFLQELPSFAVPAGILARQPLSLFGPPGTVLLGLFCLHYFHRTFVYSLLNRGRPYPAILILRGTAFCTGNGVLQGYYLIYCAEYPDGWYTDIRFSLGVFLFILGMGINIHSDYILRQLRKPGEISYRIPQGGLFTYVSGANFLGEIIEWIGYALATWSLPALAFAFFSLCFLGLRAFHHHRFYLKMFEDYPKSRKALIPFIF
# [14] = biological target: T7, Alpha-1A adrenergic receptor (Rattus norvegicus, UniProt P43140); assay: Binding affinity was tested on CEC-pretreated rat hippocampus Alpha-1A adrenergic receptor; format: tissue-based
# T7 sequence (P43140 whole entry): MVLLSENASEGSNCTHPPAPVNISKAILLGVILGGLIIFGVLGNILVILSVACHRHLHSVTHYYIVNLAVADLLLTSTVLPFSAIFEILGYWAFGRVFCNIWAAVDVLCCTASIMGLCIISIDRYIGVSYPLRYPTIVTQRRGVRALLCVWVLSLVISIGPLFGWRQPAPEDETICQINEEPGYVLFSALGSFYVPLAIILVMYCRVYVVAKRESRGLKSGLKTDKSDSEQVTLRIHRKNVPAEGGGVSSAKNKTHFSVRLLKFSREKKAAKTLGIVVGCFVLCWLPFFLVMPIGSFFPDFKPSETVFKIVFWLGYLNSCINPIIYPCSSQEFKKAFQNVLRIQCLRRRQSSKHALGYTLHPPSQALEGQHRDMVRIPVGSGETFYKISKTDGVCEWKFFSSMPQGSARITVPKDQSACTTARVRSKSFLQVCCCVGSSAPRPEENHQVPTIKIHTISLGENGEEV
# [15] = biological target: T8, Alpha-1B adrenergic receptor (Rattus norvegicus, UniProt P15823); assay: Binding affinity was tested on CEC-pretreated rat liver Alpha-1B adrenergic receptor
# T8 sequence (P15823 whole entry): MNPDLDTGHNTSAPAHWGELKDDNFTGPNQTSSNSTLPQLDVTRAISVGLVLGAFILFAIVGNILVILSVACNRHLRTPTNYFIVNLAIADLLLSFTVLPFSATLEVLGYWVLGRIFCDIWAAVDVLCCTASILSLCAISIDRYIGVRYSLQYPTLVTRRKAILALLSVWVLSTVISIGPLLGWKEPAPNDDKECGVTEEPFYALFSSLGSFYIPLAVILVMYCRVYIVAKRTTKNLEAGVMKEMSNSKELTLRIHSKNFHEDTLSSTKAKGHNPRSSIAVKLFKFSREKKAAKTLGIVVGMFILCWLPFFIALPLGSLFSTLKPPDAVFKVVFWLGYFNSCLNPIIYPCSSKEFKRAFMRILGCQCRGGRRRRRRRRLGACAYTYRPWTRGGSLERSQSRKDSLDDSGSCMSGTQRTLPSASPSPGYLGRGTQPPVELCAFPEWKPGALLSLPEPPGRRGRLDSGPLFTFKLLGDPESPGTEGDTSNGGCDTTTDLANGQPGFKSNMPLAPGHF
# [16] = In vivo dose (iv) for 50% inhibition of norepinephrine-mediated contraction of proximal urethra (ID50) with the dose (iv) for 25% reduction in systolic blood pressure (ED25) in anesthetized dogs; format: functional
smiles,measurement,setting,value
CC(C)N(C(=O)[C@H]1CC[C@H]2[C@@H]3CCC4C=C(C(=O)O)CC[C@]4(C)[C@H]3CC[C@]12C)C(C)C (some centres undefined),IC50,[1],30 nM
same,IC50,[2],70 nM
same,Ki,[3],70 nM
same,Ki,[4],30 nM
CC(C)N(C(=O)[C@H]1CCC2C3CC=C4C=C(CO)CC[C@]4(C)C3CC[C@@]21C)C(C)C (some centres undefined),Ki,[3],5300 nM
same,Ki,[4],4200 nM
COc1ccc(Cl)cc1N1CCN(CCCNc2nccc(C(N)=O)n2)CC1,ED50,[5],0.021 mg/kg
same,Ki,[6],2.51 nM
same,Ki,[7],2.51 nM
same,pA2,[8],8.6
same,Ratio,[9],5
same,Ki,[10],12.6 nM
same,ED50,[11],5 µg/kg
same,Ratio,[12],46
CN1C(=O)CC[C@]2(C)C3CC[C@@]4(C)C(CC[C@@H]4C(=O)N(C(=O)NC(C)(C)C)C(C)(C)C)C3CCC12 (some centres undefined),IC50,[13],212 nM
Cc1ccc(Cl)cc1N1CCN(CCCNC(=O)c2cccc3c(=O)c(C)c(-c4ccccc4)oc23)CC1,IC50,[14],1 nM
same,IC50,[15],29 nM
CC(C)NC(=O)N(C(=O)[C@H]1CCC2C3CCC4NC(=O)C=C[C@]4(C)C3CC[C@@]21C)C(C)C (some centres undefined),IC50,[13],1550 nM
NC(=O)c1ccnc(NCCCN2CCN(c3cccc(Cl)c3)CC2)n1,Ratio,[12],18
Cc1c(-c2ccccc2)oc2c(C(=O)NCCCN3CCN(c4ccccc4OC(C)C)CC3)cccc2c1=O,IC50,[14],1 nM
same,IC50,[15],108 nM
COc1ccc(CCN2CCC(c3nc(COCC(F)(F)F)c(-c4ccc(F)cc4)o3)CC2)cc1S(N)(=O)=O,ED50,[5],7.25 mg/kg
same,Ki,[6],0.2 nM
same,Ki,[7],25.1 nM
same,Ratio,[9],550
same,Ki,[10],15.8 nM
same,ED50,[11],13 µg/kg
CC(C)NC(=O)N(C(=O)[C@H]1CCC2C3CCC4N(C)C(=O)C=C[C@]4(C)C3CC[C@@]21C)C(C)C (some centres undefined),IC50,[13],1220 nM
COc1ccccc1N1CCN(CCNC(=O)c2cccc3c(=O)c(C)c(-c4ccccc4)oc23)CC1,IC50,[14],14 nM
same,Ratio,[16],14
same,IC50,[15],79 nM
CC(C)NC(=O)N(C(=O)[C@H]1CCC2C3CCC4NC(=O)CC[C@]4(C)C3CC[C@@]21C)C(C)C (some centres undefined),IC50,[13],381 nM
COc1ccccc1N1CCN(CCCCOc2cccc3c(=O)c(C)c(-c4ccccc4)oc23)CC1,IC50,[14],10 nM
same,Ratio,[16],13
same,IC50,[15],39 nM
CC(C)N(C(=O)[C@H]1CCC2C3CC=C4C=C([PH](=O)O)CC[C@]4(C)C3CC[C@@]21C)C(C)C (some centres undefined),Ki,[3],160 nM
same,Ki,[4],7 nM
CN1C(=O)CC[C@]2(C)C3CC[C@@]4(C)C(CC[C@@H]4C(=O)N(C(=O)NC4CCCCC4)C4CCCCC4)C3CCC12 (some centres undefined),IC50,[13],41 nM
COc1ccccc1N1CCN(CCCNc2nccc(C(N)=O)n2)CC1,Ratio,[12],31
Cc1c[nH]c(=O)n(CCCN2CCN(c3ccc(F)cc3OCC(F)(F)F)CC2)c1=O,ED50,[5],0.38 mg/kg
same,Ki,[6],1 nM
same,Ki,[7],100 nM
same,pA2,[8],8.8
same,Ratio,[9],76
same,Ki,[10],79.4 nM
same,ED50,[11],5 µg/kg
COc1ccccc1N1CCN(CCCNC(=O)c2cccc3c(=O)c(C)c(-c4ccccc4)oc23)CC1 [UPIDOSIN],IC50,[14],2 nM
same,ED50,[5],0.109 mg/kg
same,IC50,[15],24 nM
same,ED50,[11],4 µg/kg
NC(=O)c1ccnc(NCCCN2CCN(c3ccccc3C3CC3)CC2)n1,Ratio,[12],4
CC(C)N(C(=O)[C@H]1CCC2C3CC=C4C=C(P(=O)(O)O)CC[C@]4(C)C3CC[C@@]21C)C(C)C (some centres undefined),Ki,[3],200 nM
same,Ki,[4],25 nM
COc1ccccc1N1CCN(CCCNC(=O)c2ccccc2OCc2ccccc2)CC1,Ratio,[16],16
